# Test results published in patent US20220273631A1, “METHOD FOR TREATING SEXUAL DYSFUNCTION” (Catalyst Pharmaceuticals, Inc., priority 2019, published 2022).
# Experiments:
# subject one = assay: Female Sexual Functioning Index (FSFI) self-report before and after 4-week oral treatment; format: in vivo, human; conditions: for FSFI: confidence about becoming sexually aroused / FSFI: difficulty to become lubricated / FSFI: difficulty to maintain lubrication until completion / FSFI: difficulty to reach orgasm / FSFI: how often became lubricated / FSFI: how often felt sexual desire or interest / FSFI: how often felt sexually aroused / FSFI: how often maintained lubrication until completion / FSFI: how often reached orgasm / FSFI: how often satisfied with arousal / FSFI: level of sexual arousal / FSFI: level of sexual desire or interest / FSFI: satisfaction with ability to reach orgasm / FSFI: satisfaction with amount of emotional closeness with partner / FSFI: satisfaction with overall sexual life / FSFI: satisfaction with sexual relationship with partner: post-treatment FSFI
# From the text: The “Female Sexual Functioning Index” or “FSFI” is a 19-item self-report inventory designed to assess female sexual function. It comprises six domains: desire (two items)], arousal (four items), lubrication (four items), orgasm, satisfaction, and pain (three items each).
# The therapeutic efficacy of 3,4-diaminopyridine and its salts in the present methods can be determined by clinicians, for example, by using appropriate self-report inventories or questionnaires. In some embodiments, the therapeutic efficacy of 3,4-diaminopyridine, or a pharmaceutically acceptable thereof, in the present methods in female subjects can be assessed by the Female Sexual Functioning Index (FSFI) designed to measure sexual functioning in women. See, e.g., Rosen et al., Journal of Sex and Marital Therapy 26:191-208 (2000).
# subject one self-reported their sexual functioning for the past 4 weeks using the FSFI questionnaire (“the pre-treatment FSFI”).
# The subject then orally self-administered a total daily dose of 80 mg of 3,4-diaminopyridine phosphate salt for 4 weeks. The last dose of each day was self-administered at about 5:30 pm. The timing of their sexual activity, if any, was in the evening.
# After the 4-week treatment period, the subject self-reported their sexual functioning for the past 4 weeks using the FSFI questionnaire (“the post-treatment FSFI”).
# The subject then orally self-administered a total daily dose of 60 mg of 3,4-diaminopyridine phosphate salt for 4 weeks. The last dose of each day was self-administered at about 6 pm. The timing of their sexual activity, if any, was in the evening at 8-9 pm.
# The subject then orally self-administered a total daily dose of 40 mg of 3,4-diaminopyridine phosphate salt for 4 weeks. The last dose of each day was self-administered at about 11 pm (5 mg). The timing of their sexual activity, if any, was in the morning, afternoon, and at night.
# subject two = assay: International Index of Erectile Function (IIEF) self-report before and after 4-week oral treatment; format: in vivo, human; parameters: key to IIEF question 1 score: able to get an erection during sexual activity / IIEF question 4 score: able to maintain erection after penetration / IIEF question 7 score: attempted intercourse satisfactory: each question scored 0-5; conditions: for IIEF question 1 score: able to get an erection during sexual activity / IIEF question 2 score: erections hard enough for penetration / IIEF question 3 score: able to penetrate partner when attempting intercourse / IIEF question 4 score: able to maintain erection after penetration / IIEF question 5 score: difficulty to maintain erection to completion of intercourse / IIEF question 6 score: attempts for sexual intercourse / IIEF question 7 score: attempted intercourse satisfactory / IIEF question 8 score: enjoyment of sexual intercourse / IIEF question 9 score: ejaculated with sexual stimulation or intercourse / IIEF question 10 score: feeling of orgasm or climax / IIEF question 11 score: how often felt sexual desire / IIEF question 12 score: level of sexual desire / IIEF question 13 score: satisfaction with overall sex life / IIEF question 14 score: satisfaction with sexual relationship with partner / IIEF question 15 score: confidence to get and keep an erection: post-treatment IIEF
# From the text: The “International Index of Erectile Function” or “IIEF” is a self-report inventory consisting of 15 questions and 5 functional domains, which was developed for use in determining efficacy of treatment in controlled clinical trials. The IIEF has high sensitivity and specificity for detecting real treatment effects or the lack of treatment effects in patients with ED of broad-spectrum etiology. A score of 0-5 is awarded to each of the 15 questions that examine the 4 main domains of male sexual function: erectile function, orgasmic function, sexual desire, and intercourse satisfaction. Rosen, R., et al. (in Urology 49:822-830 (1997)) describe a study where the IIEF was tested in a series of 111 men with […] and 109 age-matched, normal volunteers. In some embodiments, the therapeutic efficacy of 3,4-diaminopyridine, or a pharmaceutically acceptable thereof, in the present methods in male subjects can be assessed by the Brief Male Sexual Function Inventory (BSFI) described by, for example, Mykletun et al., BJU International 97:316-323 (2005). In some embodiments, the Male Sexual Health Questionnaire (MSHQ) can be used to assess sexual function and satisfaction in older men with urogenital symptoms of lower urinary tract and sexual dysfunction. See, e.g., Rosen, et al., Urology 64(4):777-782 (2004). In some embodiments, the therapeutic efficacy of 3,4-diaminopyridine, or a pharmaceutically acceptable thereof, in the present methods in male subjects, can be assessed by the 15-question International Index of Erectile Function (IIEF) described by, for example, Rosen et al., Urology 49:822-830 (1997). […] The subject then orally self-administered a total daily dose of 60 mg (4 times 15 mg) of 3,4-diaminopyridine phosphate salt for 4 weeks. The last dose of each day was self-administered at about 8:30 pm. The timing of their sexual activity, if any, was at about 11:30 am (after the 11 am dose) or at about 4 pm. After the 4-week treatment period, the subject self-reported sexual functioning for the past 4 weeks using the IIEF questionnaire (“the post-treatment IIEF”). […] The subject then orally self-administered a total daily dose of 80 mg (4 times 20 mg) of 3,4-diaminopyridine phosphate salt for 4 weeks. The last dose of each day was self-administered at about 6:30 pm. The timing of their sexual activity, if any, was at about 7:30 pm. After the 4-week treatment period, the subject self-reported sexual functioning for the past 4 weeks using the IIEF questionnaire (“the post-treatment IIEF”).
# [1] = Example 1 subject one, total daily dose 80 mg orally for 4 weeks
# [2] = Example 2 subject one, total daily dose 60 mg orally for 4 weeks
# [3] = Example 3 subject one, total daily dose 40 mg orally for 4 weeks
# [4] = four week course of an effective daily dose, general statement
# [5] = Example 4, subject, 60 mg daily (4 times 15 mg) orally for 4 weeks
# [6] = Example 4, subject, 60 mg daily orally for 4 weeks
# [7] = Example 4, subject, 60 mg daily orally for 4 weeks, maximum score 10, pre-treatment score 4
# [8] = Example 5, subject, 80 mg daily (4 times 20 mg) orally for 4 weeks
compound,measurement,setting,value
"Nc1ccncc1N.O=P(O)(O)O [3,4-diaminopyridine phosphate salt]",confidence while being treated (subject report),subject one; [1],more confident
same,emotional experience with partner (subject report),subject one; [1],better
same,time to reach orgasm (subject report),subject one; [1],shorter
same,FSFI: confidence about becoming sexually aroused,subject one; [1],very high
same,FSFI: difficulty to become lubricated,subject one; [1],slightly difficult
same,FSFI: difficulty to maintain lubrication until completion,subject one; [1],slightly difficult
same,FSFI: difficulty to reach orgasm,subject one; [1],not difficult
same,FSFI: how often became lubricated,subject one; [1],most times
same,FSFI: how often felt sexual desire or interest,subject one; [1],almost always or always
same,FSFI: how often felt sexually aroused,subject one; [1],almost always or always
same,FSFI: how often maintained lubrication until completion,subject one; [1],most times
same,FSFI: how often reached orgasm,subject one; [1],most times
same,FSFI: how often satisfied with arousal,subject one; [1],most times
same,FSFI: level of sexual arousal,subject one; [1],high
same,FSFI: level of sexual desire or interest,subject one; [1],moderate
same,FSFI: satisfaction with ability to reach orgasm,subject one; [1],very satisfied
same,FSFI: satisfaction with amount of emotional closeness with partner,subject one; [1],very satisfied
same,FSFI: satisfaction with overall sexual life,subject one; [1],very satisfied
same,FSFI: satisfaction with sexual relationship with partner,subject one; [1],very satisfied
same,confidence while being treated (subject report),subject one; [2],more confident
same,emotional experience with partner (subject report),subject one; [2],better
same,time to reach orgasm (subject report),subject one; [2],shorter
same,FSFI: confidence about becoming sexually aroused,subject one; [2],very high
same,FSFI: difficulty to become lubricated,subject one; [2],not difficult
same,FSFI: difficulty to maintain lubrication until completion,subject one; [2],not difficult
same,FSFI: difficulty to reach orgasm,subject one; [2],not difficult
same,FSFI: how often became lubricated,subject one; [2],almost always or always
same,FSFI: how often felt sexual desire or interest,subject one; [2],almost always or always
same,FSFI: how often felt sexually aroused,subject one; [2],most times
same,FSFI: how often maintained lubrication until completion,subject one; [2],almost never or never
same,FSFI: how often reached orgasm,subject one; [2],almost always or always
same,FSFI: how often satisfied with arousal,subject one; [2],almost always or always
same,FSFI: level of sexual arousal,subject one; [2],very high
same,FSFI: level of sexual desire or interest,subject one; [2],very high
same,FSFI: satisfaction with ability to reach orgasm,subject one; [2],very satisfied
same,FSFI: satisfaction with amount of emotional closeness with partner,subject one; [2],very satisfied
same,FSFI: satisfaction with overall sexual life,subject one; [2],very satisfied
same,FSFI: satisfaction with sexual relationship with partner,subject one; [2],very satisfied
same,"orgasms experienced after taking the drug, not experienced before (subject report)",subject one; [3],multiple orgasms
same,FSFI: confidence about becoming sexually aroused,subject one; [3],very high
same,FSFI: difficulty to become lubricated,subject one; [3],not difficult
same,FSFI: difficulty to maintain lubrication until completion,subject one; [3],not difficult
same,FSFI: difficulty to reach orgasm,subject one; [3],not difficult
same,FSFI: how often became lubricated,subject one; [3],almost always or always
same,FSFI: how often felt sexual desire or interest,subject one; [3],almost always or always
same,FSFI: how often felt sexually aroused,subject one; [3],almost always or always
same,FSFI: how often maintained lubrication until completion,subject one; [3],almost always or always
same,FSFI: how often reached orgasm,subject one; [3],almost always or always
same,FSFI: how often satisfied with arousal,subject one; [3],almost always or always
same,FSFI: level of sexual arousal,subject one; [3],very high
same,FSFI: level of sexual desire or interest,subject one; [3],very high
same,FSFI: satisfaction with ability to reach orgasm,subject one; [3],very satisfied
same,FSFI: satisfaction with amount of emotional closeness with partner,subject one; [3],very satisfied
same,FSFI: satisfaction with overall sexual life,subject one; [3],very satisfied
same,FSFI: satisfaction with sexual relationship with partner,subject one; [3],very satisfied
same,sexual functioning of subjects suffering from sexual dysfunction,"subject one; daily oral administration, general statement",overall improvement
same,orgasmic ability (FSFI before and after),subject one; [4],increased orgasmic ability
same,sexual desire (FSFI before and after),subject one; [4],increased sexual desire
same,sexual satisfaction (FSFI before and after),subject one; [4],increased sexual satisfaction
same,IIEF question 1 score: able to get an erection during sexual activity,subject two; [5],4
same,IIEF question 2 score: erections hard enough for penetration,subject two; [5],4
same,IIEF question 3 score: able to penetrate partner when attempting intercourse,subject two; [5],4
same,IIEF question 4 score: able to maintain erection after penetration,subject two; [5],3
same,IIEF question 5 score: difficulty to maintain erection to completion of intercourse,subject two; [5],4
same,IIEF question 6 score: attempts for sexual intercourse,subject two; [5],3
same,IIEF question 7 score: attempted intercourse satisfactory,subject two; [5],4
same,IIEF question 8 score: enjoyment of sexual intercourse,subject two; [5],4
same,IIEF question 9 score: ejaculated with sexual stimulation or intercourse,subject two; [5],4
same,IIEF question 10 score: feeling of orgasm or climax,subject two; [5],4
same,IIEF question 11 score: how often felt sexual desire,subject two; [5],5
same,IIEF question 12 score: level of sexual desire,subject two; [5],4
same,IIEF question 13 score: satisfaction with overall sex life,subject two; [5],4
same,IIEF question 14 score: satisfaction with sexual relationship with partner,subject two; [5],4
same,IIEF question 15 score: confidence to get and keep an erection,subject two; [5],4
same,arousal (subject report),subject two; [6],more aroused
same,overall sexual performance (subject report),subject two; [6],better
same,effect on all the 5 IIEF domains of male sexual function,"subject two; Example 4, subject, 60 mg daily orally for 4 weeks, Table 3",improved
same,"Post-Treatment Score, IIEF domain B. Orgasmic Function (questions 9 and 10)",subject two; [7],8
same,"Post-Treatment Score, IIEF domain E. Overall Satisfaction (questions 13 and 14)",subject two; [7],8
same,"Post-Treatment Score, IIEF domain C. Sexual Desire (questions 11 and 12)","subject two; Example 4, subject, 60 mg daily orally for 4 weeks, maximum score 10, pre-treatment score 5",9
same,"Post-Treatment Score, IIEF domain D. Intercourse Satisfaction (questions 6-8)","subject two; Example 4, subject, 60 mg daily orally for 4 weeks, maximum score 15, pre-treatment score 5",11
same,"Post-Treatment Score, IIEF domain A. Erectile Function (questions 1-5 and 15)","subject two; Example 4, subject, 60 mg daily orally for 4 weeks, maximum score 30, pre-treatment score 8",23
same,IIEF question 1 score: able to get an erection during sexual activity,subject two; [8],4
same,IIEF question 2 score: erections hard enough for penetration,subject two; [8],4
same,IIEF question 3 score: able to penetrate partner when attempting intercourse,subject two; [8],4
same,IIEF question 4 score: able to maintain erection after penetration,subject two; [8],3
same,IIEF question 5 score: difficulty to maintain erection to completion of intercourse,subject two; [8],4
same,IIEF question 6 score: attempts for sexual intercourse,subject two; [8],3
same,IIEF question 7 score: attempted intercourse satisfactory,subject two; [8],4
same,IIEF question 8 score: enjoyment of sexual intercourse,subject two; [8],4
same,IIEF question 9 score: ejaculated with sexual stimulation or intercourse,subject two; [8],4
same,IIEF question 10 score: feeling of orgasm or climax,subject two; [8],4
same,IIEF question 11 score: how often felt sexual desire,subject two; [8],5
same,IIEF question 12 score: level of sexual desire,subject two; [8],4
same,IIEF question 13 score: satisfaction with overall sex life,subject two; [8],4
same,IIEF question 14 score: satisfaction with sexual relationship with partner,subject two; [8],4
same,IIEF question 15 score: confidence to get and keep an erection,subject two; [8],4
same,overall sexual performance (subject report),"subject two; Example 5, subject, 80 mg daily orally for 4 weeks",better
